Test results as given in US20260345619A1 (Principia Biopharma Inc., priority 2023, published 2026).

Assay: Asthma Quality of Life Questionnaire with Standardized Activities (AQLQ(S))
Format: in vivo, human
Settings: for AQLQ global score responders at Week 12, number / AQLQ global score responders at Week 12, percentage: improvement ≥0.5 from baseline
Source text: The AQLQ(S) is a self-administered patient reported outcome to measure the functional impairments that are most troublesome to adolescents and adults ≥12 years of age as a result of their asthma.
Asthma Quality of Life Questionnaire with Standardized Activities (AQLQ(S)) self-administered (≥12 years)
The AQLQ(S) was designed as a self-administered patient reported outcome to measure the functional impairments that are most troublesome to adolescents and adults ≥12 years of age as a result of their asthma. The instrument is comprised of 32 items, each rated on a 7-point Likert scales from 1 to 7. The AQLQ(S) has 4 domains. The domains and the number of items in each domain are as follows: • Symptoms (12 items) • Activity limitation (11 items) • Emotional function (5 items) • Environmental stimuli (4 items)
A global score is calculated ranging from 1 to 7 and a score by domain. Higher scores indicate better quality of life. […] Patients were to complete the questionnaire in an electronic diary during on-site visits.
Secondary endpoints included pre-bronchodilator FEV1 change from baseline at EOT, ACQ-5 score change from baseline, and AQLQ score change from baseline. Other secondary and exploratory endpoints are described in Table 2.

[1] = 400 mg BID, observed/LOCF imputed, n=29, mITT
[2] = 400 mg TID, observed/LOCF imputed, n=53, mITT

CC(C)(C=C(C#N)C(=O)N1CCC[C@@H](n2nc(-c3ccc(Oc4ccccc4)cc3F)c3c(N)ncnc32)C1)N1CCN(C2COC2)CC1 (mixture of isomers) [rilzabrutinib, (R)-2-[3-[4-amino-3-(2-fluoro-4-phenoxy-phenyl)pyrazolo[3,4-d]pyrimidin-1-yl]piperidine-1-carbonyl]-4-methyl-4-[4-(oxetan-3-yl)piperazin-1-yl]pent-2-enenitrile]
AQLQ global score responder analysis at Week 12, OR vs. placebo (95% CI) (400 mg BID, 95% CI 1.19, 20.17, mITT): 4.89 | AQLQ global score responders (including multiply imputed) at Week 12, number (400 mg BID, N=32, mITT): 16.6 | AQLQ global score responders (including multiply imputed) at Week 12, percentage (400 mg BID, N=32, mITT): (51.7) | AQLQ global score responders at Week 12, number [1]: 15 | AQLQ global score responders at Week 12, percentage [1]: (51.7) (14/1) % | AQLQ global score change from baseline at Week 12, LS Mean Diff vs. placebo (400 mg BID, mITT, 1 asthma exacerbation within 2 years): 0.75 | AQLQ global score change from baseline at Week 12, LS Mean Diff vs. placebo (400 mg BID, mITT, 2 asthma exacerbations within 2 years): 0.61 | AQLQ global score change from baseline at Week 12, LS Mean Diff vs. placebo (400 mg BID, mITT, >2 asthma exacerbations within 2 years): 1.18 | AQLQ global score change from baseline at Week 12, LS Mean Diff vs. placebo (400 mg BID, mITT, Eastern Europe): 0.08 | AQLQ global score change from baseline at Week 12, LS Mean Diff vs. placebo (400 mg BID, mITT, Latin America): 0.87 | AQLQ global score change from baseline at Week 12, LS Mean Diff vs. placebo (400 mg BID, mITT, age <45 years): 0.20 | AQLQ global score change from baseline at Week 12, LS Mean Diff vs. placebo (400 mg BID, mITT, age at asthma onset <12 years): 0.34 | AQLQ global score change from baseline at Week 12, LS Mean Diff vs. placebo (400 mg BID, mITT, age at asthma onset <18 years): 0.43 | AQLQ global score change from baseline at Week 12, LS Mean Diff vs. placebo (400 mg BID, mITT, age at asthma onset ≥12-<18 years): 2.49 | AQLQ global score change from baseline at Week 12, LS Mean Diff vs. placebo (400 mg BID, mITT, age at asthma onset ≥18-<40 years): 0.57 | AQLQ global score change from baseline at Week 12, LS Mean Diff vs. placebo (400 mg BID, mITT, age at asthma onset ≥18 years): 0.75 | AQLQ global score change from baseline at Week 12, LS Mean Diff vs. placebo (400 mg BID, mITT, age at asthma onset ≥40 years): 0.93 | AQLQ global score change from baseline at Week 12, LS Mean Diff vs. placebo (400 mg BID, mITT, age ≥45 years): 1.04 | AQLQ global score change from baseline at Week 12, LS Mean Diff vs. placebo (400 mg BID, mITT, all others than low EOS and low FeNO): 0.61 | AQLQ global score change from baseline at Week 12, LS Mean Diff vs. placebo (400 mg BID, mITT, atopic medical conditions: no): 1.08 | AQLQ global score change from baseline at Week 12, LS Mean Diff vs. placebo (400 mg BID, mITT, atopic medical conditions: yes): 0.52 | AQLQ global score change from baseline at Week 12, LS Mean Diff vs. placebo (400 mg BID, mITT, baseline ACQ-5 score >2): 0.95 | AQLQ global score change from baseline at Week 12, LS Mean Diff vs. placebo (400 mg BID, mITT, baseline ACQ-5 score ≤2): 0.43 | AQLQ global score change from baseline at Week 12, LS Mean Diff vs. placebo (400 mg BID, mITT, baseline BMI <25 kg/m^2): 1.00 | AQLQ global score change from baseline at Week 12, LS Mean Diff vs. placebo (400 mg BID, mITT, baseline BMI ≥25-<30 kg/m^2): 0.67 | AQLQ global score change from baseline at Week 12, LS Mean Diff vs. placebo (400 mg BID, mITT, baseline BMI ≥30 kg/m^2): 0.73 | AQLQ global score change from baseline at Week 12, LS Mean Diff vs. placebo (400 mg BID, mITT, baseline FEV1 reversibility <12%): 0.73 | AQLQ global score change from baseline at Week 12, LS Mean Diff vs. placebo (400 mg BID, mITT, baseline FEV1 reversibility ≥12%): 0.29 | AQLQ global score change from baseline at Week 12, LS Mean Diff vs. placebo (400 mg BID, mITT, baseline FeNO <25 ppb): 0.98 | AQLQ global score change from baseline at Week 12, LS Mean Diff vs. placebo (400 mg BID, mITT, baseline FeNO <35 ppb): 0.84 | AQLQ global score change from baseline at Week 12, LS Mean Diff vs. placebo (400 mg BID, mITT, baseline FeNO ≥25 ppb): 0.51 | AQLQ global score change from baseline at Week 12, LS Mean Diff vs. placebo (400 mg BID, mITT, baseline FeNO ≥35 ppb): 0.77 | AQLQ global score change from baseline at Week 12, LS Mean Diff vs. placebo (400 mg BID, mITT, baseline IgE <100 IU/mL): 0.90 | AQLQ global score change from baseline at Week 12, LS Mean Diff vs. placebo (400 mg BID, mITT, baseline IgE <median 210.8 IU/mL): 1.03 | AQLQ global score change from baseline at Week 12, LS Mean Diff vs. placebo (400 mg BID, mITT, baseline IgE ≥100 IU/mL): 0.59 | AQLQ global score change from baseline at Week 12, LS Mean Diff vs. placebo (400 mg BID, mITT, baseline IgE ≥median 210.8 IU/mL): 0.67 | AQLQ global score change from baseline at Week 12, LS Mean Diff vs. placebo (400 mg BID, mITT, baseline blood eosinophil level 1 <0.15 10^9/L): 0.62 | AQLQ global score change from baseline at Week 12, LS Mean Diff vs. placebo (400 mg BID, mITT, baseline blood eosinophil level 1 ≥0.15 10^9/L): 0.69 | AQLQ global score change from baseline at Week 12, LS Mean Diff vs. placebo (400 mg BID, mITT, baseline blood eosinophil level 2 <0.3 10^9/L): 0.79 | AQLQ global score change from baseline at Week 12, LS Mean Diff vs. placebo (400 mg BID, mITT, baseline blood eosinophil level 2 ≥0.3 10^9/L): 0.67 | AQLQ global score change from baseline at Week 12, LS Mean Diff vs. placebo (400 mg BID, mITT, baseline percent predicted FEV1 <68%): 0.92 | AQLQ global score change from baseline at Week 12, LS Mean Diff vs. placebo (400 mg BID, mITT, baseline percent predicted FEV1 ≥68%): 0.47 | AQLQ global score change from baseline at Week 12, LS Mean Diff vs. placebo (400 mg BID, mITT, baseline pre-bronchodilator FEV1 <2.022 L): 0.89 | AQLQ global score change from baseline at Week 12, LS Mean Diff vs. placebo (400 mg BID, mITT, baseline pre-bronchodilator FEV1 ≥2.022 L): 0.54 | AQLQ global score change from baseline at Week 12, LS Mean Diff vs. placebo (400 mg BID, mITT, baseline weight <60 kg): 1.63 | AQLQ global score change from baseline at Week 12, LS Mean Diff vs. placebo (400 mg BID, mITT, baseline weight ≥60-<90 kg): 0.70 | AQLQ global score change from baseline at Week 12, LS Mean Diff vs. placebo (400 mg BID, mITT, baseline weight ≥90 kg): −0.26 | AQLQ global score change from baseline at Week 12, LS Mean Diff vs. placebo (400 mg BID, mITT, female): 0.73 | AQLQ global score change from baseline at Week 12, LS Mean Diff vs. placebo (400 mg BID, mITT, former smokers): 1.89 | AQLQ global score change from baseline at Week 12, LS Mean Diff vs. placebo (400 mg BID, mITT, low EOS (<0.15) and low FeNO (<25)): 2.45 | AQLQ global score change from baseline at Week 12, LS Mean Diff vs. placebo (400 mg BID, mITT, male): 0.41 | AQLQ global score change from baseline at Week 12, LS Mean Diff vs. placebo (400 mg BID, mITT, never smokers): 0.65 | AQLQ global score non-responders at Week 12, number [1]: 14 | AQLQ global score non-responders at Week 12, percentage [1]: (48.3) (10/4) | participants with AQLQ improvement of at least 0.5 from baseline at Week 12 (400 mg BID, placebo 34.5%, p=0.0281): 51.7% | AQLQ global score responder analysis at Week 12, OR vs. placebo (95% CI) (400 mg TID, 95% CI 1.02, 4.89, mITT): 2.23 | AQLQ global score responders (including multiply imputed) at Week 12, number (400 mg TID, N=64, mITT): 32.9 | AQLQ global score responders (including multiply imputed) at Week 12, percentage (400 mg TID, N=64, mITT): (51.4) | AQLQ global score responders at Week 12, number [2]: 29 | AQLQ global score responders at Week 12, percentage [2]: (54.7) (28/1) % | AQLQ global score change from baseline at Week 12, LS Mean Diff vs. placebo (400 mg TID, mITT, 1 asthma exacerbation within 2 years): 0.29 | AQLQ global score change from baseline at Week 12, LS Mean Diff vs. placebo (400 mg TID, mITT, 2 asthma exacerbations within 2 years): 0.27 | AQLQ global score change from baseline at Week 12, LS Mean Diff vs. placebo (400 mg TID, mITT, Eastern Europe): 0.43 | AQLQ global score change from baseline at Week 12, LS Mean Diff vs. placebo (400 mg TID, mITT, Latin America): −0.22 | AQLQ global score change from baseline at Week 12, LS Mean Diff vs. placebo (400 mg TID, mITT, age <45 years): 0.43 | AQLQ global score change from baseline at Week 12, LS Mean Diff vs. placebo (400 mg TID, mITT, age at asthma onset <12 years): 0.46 | AQLQ global score change from baseline at Week 12, LS Mean Diff vs. placebo (400 mg TID, mITT, age at asthma onset <18 years): 0.31 | AQLQ global score change from baseline at Week 12, LS Mean Diff vs. placebo (400 mg TID, mITT, age at asthma onset ≥12-<18 years): −0.37 | AQLQ global score change from baseline at Week 12, LS Mean Diff vs. placebo (400 mg TID, mITT, age at asthma onset ≥18-<40 years): 0.25 | AQLQ global score change from baseline at Week 12, LS Mean Diff vs. placebo (400 mg TID, mITT, age at asthma onset ≥18 years): 0.24 | AQLQ global score change from baseline at Week 12, LS Mean Diff vs. placebo (400 mg TID, mITT, age at asthma onset ≥40 years): 0.29 | AQLQ global score change from baseline at Week 12, LS Mean Diff vs. placebo (400 mg TID, mITT, age ≥45 years): 0.15
